Measurements from US9273317B2, “Methods and compositions for inhibiting the growth and/or proliferation of MYC-driven tumor cells” (Fred Hutchinson Cancer Research Center, priority 2011, dated 2016).

Key:
MYC overexpressing cells = test: IC261 viability by CellTiter-Glo in cells with or without MYC overexpression; type: cell-based, human; conditions: 48 hrs, HFF with or without c-Myc, Tet21N with or without doxycyclin, IMR-32
Experimental: (§1) a. HFF cell lines with or without c-Myc over-expression were treated with 0-10 uM IC261 for 48 hrs. The cells were exposed to CellTiter-Glo reagent and viability was assessed by ATP-induced chemiluminescence. Values indicate mean±SD. b. Tet21N cells with or without doxycyclin treatment and IMR-32 cells (MYCN+) were treated with 0-30 uM IC261 for 48 hrs. The cells were exposed to CellTiter-Glo reagent and the viability was assessed by ATP-induced chemiluminescence. Values indicate mean±SD. c. Cell growth curves for HFF-pBabe incubated with different concentrations of IC261. d. Cell growth curves for HFF-MYC incubated with different concentrations of IC261.
(§2) As there is strong selection to escape lentiviral-mediated silencing of genes that are necessary for cell growth, we proceeded to evaluate a small molecule inhibitor of CSNK1e enzymatic activity, IC261^33. […] A cohort of ten xenograft bearing mice was randomized into two groups with approximate equal tumor burden; one group was treated with daily subcutaneous injection of IC261 for 8 consecutive days, while the control group was treated with DMSO vehicle only. […] Taken together, the results obtained by genetic knock-down as well as via small molecule inhibitor validate CSNK1e as a potential therapeutic target for MYCN-driven neuroblastoma.

IMR-32 cells (MYCN+) = test: IC261 viability by CellTiter-Glo in IMR-32 cells; type: cell-based, human; conditions: 0-30 uM, 48 hrs
Experimental: as §1, §2

[1] = tested on: MYCN amplified neuroblastoma xenograft (IMR32); test: IC261 treatment of MYCN amplified neuroblastoma xenograft; type: in vivo, NOD/SCID mice
Experimental: FIG. 3. IC261 treatment blocks MYCN amplified neuroblastoma tumor growth in vivo. a, Representative images of MYCN amplified neuroblastoma xenograft in NOD/SCID mice before and after treatment with either DMSO or IC261. Tumors were engrafted, and allowed to reach a size of about 100 mm^3, then IC261 (21.5 mg/kg) or DMSO was injected subcutaneously daily for 8 days. b, Quantitation of tumor size over the 8-day treatment regimen with either IC261 or DMSO control. Values represent mean tumor volume at each time point (n=5 for each group, error bars indicate SD). c, Immunohistochemical analysis of tumor sections from IC261 and DMSO treatment groups described in a and b. Representative images of H-E, TUNEL and BrdU staining for each group are shown. BrdU was administered 2 h before collection. d. Quantification of TUNEL positive cells and BrdU positive cells per field in DMSO or IC-261 treated xenograft tumors. Error bars indicate SD of means.
as §2

HFF-MYC = test: High throughput siRNA screen, cell viability by Alamar Blue, c-MYC overexpressing cells; type: cell-based, human
Experimental: (§3) FIG. 1. Identification of synthetic lethal genes with c-MYC overexpression by high throughput siRNA screening. a, Graphical schematic of the siRNA screen. HFF expressing either c-MYC or transduced with an empty retroviral vector, pB, were plated in 384 well plates. 24 hr later they were transfected with siRNA pools (3 siRNAs/pool) targeting a total of ˜3,311 genes, with one gene targeted per well. At day 5, the viability was quantified utilizing an Alamar Blue staining assay and an EnVision plate reader. b, Graphical representation of cell viability as affected by each siRNA pool in both HFF-pB or HFF-c-MYC and quantified as % relative to mock (on a log10 scale). Values represent the average viability of 3 replicates. A set of siRNAs (targeting 102 genes labeled as light shaded+) caused differential loss of viability (Z score>2) in the HFF-MYC versus control pB. An additional set of siRNAs targeting 20 genes caused selective growth advantage to HFF-MYC. c, CSNK1e, PES1 and CECR2 mRNA levels following lentiviral-mediated shRNA knock-down. Relative levels of each gene were calculated using the ΔΔCT method and using GAPDH to normalize mRNA levels within each sample. d, Viability of HFF-pBabe and HFF-Myc following stable, lentiviral based knock-down of MYC-SL genes CSNK1e, PES1 and CECR2. […] Y-axis indicates the % of cells stained with anti-γ-H2AX that scored for nuclear fluorescence levels above a negative control established threshold. Quantitation was obtained by automated microscopy in 96 well format, from triplicate samples. g, Quantitative assessment of Caspase-3 and -7 cleavage following transfection of the same siRNA pools as above (measured by the CaspaseGlo kit, Promega). […]
We employed a high throughput robotics-based approach for massive parallel testing of an arrayed siRNA library to accurately quantify the effects of siRNAs against ˜3,300 druggable genes and 200 microRNAs on the viability of HFF-MYC (stably transduced with a retroviral vector expressing c-MYC), or a control empty vector, HFF-pB^14, see FIG. 1a for schematic of the experimental set-up). […]

HFF-pB = test: High throughput siRNA screen, cell viability by Alamar Blue, control cells; type: cell-based, human; conditions: siRNA pool (3 siRNAs/pool), day 5, average of 3 replicates, relative to median of wells transfected with siRNA to luciferase
Experimental: as §3, with “A set of siRNAs (targeting 102 genes labeled as light shaded+) caused differential loss of viability (Z score>2) in the HFF-MYC versus control pB. An additional set of siRNAs targeting 20 genes caused selective growth advantage to HFF-MYC. c, CSNK1e, PES1 and CECR2 mRNA levels following lentiviral-mediated shRNA knock-down.” left out

Compound	differences in IC50, MYC overexpressing versus normal or low MYC expressing cells (MYC overexpressing cells)	sensitivity to IC261 in vitro (IMR-32 cells (MYCN+))	tumor growth ([1]; 21.5 mg/kg subcutaneously daily for 8 days)	apoptosis by TUNEL staining of tumor tissue ([1]; after IC261 treatment)	BrdU labeling of tumor tissue ([1]; after IC261 treatment, BrdU 2 h before collection)	Z score (>than) (HFF-MYC; differential loss of viability HFF-MYC versus HFF-pB)	Ratio pBabe/Myc (HFF-MYC; ratio of percent viability of a given siRNA pool in HFF-pB/HFF-MYC)	% Viability HFF-MYC (HFF-MYC; siRNA pool (3 siRNAs/pool), day 5, average of 3 replicates, relative to median of wells transfected with siRNA to luciferase)	% Viability HFF-pB (HFF-pB)
COc1cc(OC)c(C=C2C(O)=Nc3ccccc32)c(OC)c1 [IC261]	> 100 fold	highly sensitive	effective in halting tumor growth in all treated mice	very little apoptosis was detected	marked decrease in BrdU labeling	–	–	–	–
CTPS	–	–	–	–	–	> 2.5	3.63	19.44%	70.57%
